Experiments:
rat hippocampal cultures = assay: Neuroprotection from acute glutamate toxicity, CFDA neuronal viability assay; format: cell-based; conditions: initial testing of the core compound; assay not specified
Rat MES = assay: Maximal electroshock test; format: in vivo; conditions: at 30 mg/kg
Mouse MES = assay: Maximal electroshock test; format: in vivo; conditions: at 100 mg/kg
Mouse 6-Hz test = assay: 6-Hz seizure test, mouse; format: in vivo; conditions: at 100 mg/kg
Mouse scPTZ = assay: Subcutaneous pentylenetetrazol; format: in vivo
[1] = Caco-2 bidirectional permeability assay; format: in vitro ADME, human; conditions: human
Caco-2 cells = assay: Caco-2 bidirectional permeability assay; format: in vitro ADME, human

Mouse scPTZ (s.c. EC50) (Mouse scPTZ; PTZ 85 mg/kg s.c.) | Papp A→B at 5 µM [1] | Permeability classification (Caco-2 cells) | Papp B→A at 5 µM [1] | efflux ratio at 5 µM [1] | Significant efflux (Caco-2 cells) | Compound | potency for neuroprotection (rat hippocampal cultures) | Rat MES (oral), animals protected/tested (Rat MES) | Mouse MES (i.p.), animals protected/tested (Mouse MES) | Mouse 6-Hz test (i.p.), animals protected/tested (Mouse 6-Hz test) | activity in the mouse pentylenetetrazol model (Mouse scPTZ; at 300 mg/kg i.p.)
>300 mg/kg |  |  |  |  |  | NS(=O)(=O)NCC(O)c1ccccc1F (stereo not shown) [AND-171, 2-(2-Fluorophenyl)-2-hydroxyethylsulfamide] | 30 to 100 nM | 1/4 at 30 mg/kg | 1/3 at 100 mg/kg | 1/4 at 100 mg/kg | no demonstrated activity
 | 17.1 ×10⁻⁶ cm/s | High |  |  |  | CC(C)NCC(O)COc1cccc2ccccc12 (stereo not shown) [Propranolol control, Propranolol] |  |  |  |  | 
 | 0.62 ×10⁻⁶ cm/s | Low | 12.5 ×10⁻⁶ cm/s | 20.2 | Yes | C[C@H]1O[C@@H](O[C@H]2[C@@H](O)C[C@H](O[C@H]3[C@@H](O)C[C@H](O[C@H]4CC[C@@]5(C)[C@H](CC[C@@H]6[C@@H]5C[C@@H](O)[C@]5(C)[C@@H](C7=CC(=O)OC7)CC[C@]65O)C4)O[C@@H]3C)O[C@@H]2C)C[C@H](O)[C@@H]1O [Digoxin control, Digoxin] |  |  |  |  | 

Reference: article PMC3377984 (Journal of Molecular Neuroscience, 2012)
